Assay [1] has as its system MV4:11 human cancer cell lines. Kind of assay: Cellular viability / anti-proliferative activity, CellTiter-Glo, 5 day protocol. Type of assay: cell-based. The settings on record: Homo sapiens, 5 day incubation. The procedure:
Anti-proliferative activity using MLL-harboring cell lines. MV-4-11 and K562 cells are grown in IMDM media supplemented with 10% FBS and 1% penicillin/streptomycin, Molm-13 cells are cultured in RPMI-1640 media supplemented with 10% FBS and 1% penicillin/streptomycin. Viability assays are performed by dispensing 200 cells at 7200 cells/mL into each well of an opaque 384-well plate and adding compounds at the indicated concentrations in a final volume of 32 μL and a final concentration of DMSO of 0.3% for all samples. A certain range of compound concentrations is made through a series of 2-fold dilutions starting 30 μM at the highest, total 22 dilutions. After a set incubation period, 5 day protocol, the viability of cells in each well is assessed using the CellTiter-Glo assay (Promega), read on a 96 Microplane Luminometer (Cytation 3, BioTek). Serial dilutions of each cell type are performed in all assays to generate standard curves and the final densities of cells are determined within the dynamic range of the instrument. GI50 values are calculated based on XLfit software (IDBS, Guildford, UK) with Sigmoidal Dose-Response Model. Each compound is tested in minimum of two replicates. Data are expressed as mean.
For orientation: Cellular ATP, detected with luciferase, serves as a proxy for viable cell number.

The target in assay [2] is T1, WDR5 (Homo sapiens, UniProt P61964).
T1 construct: WDR5-His Tag (A23, residues 24-334) is expressed and purified in our lab; made in house
Briefly: Time Resolved-Fluorescence Energy Transfer (TR-FRET) competition assay, displacement of 10mer-Thr-FAM probe from His-tagged WDR5. Format: binding. Conditions: WDR5-His tag 2 nM, 10mer-Thr-FAM 150 nM, 60 minutes at room temperature. From the text: Excess 10mer-Thr-FAM probe was utilized with His-tagged WDR5 in conjunction with a commercial anti-His antibody containing a Terbium label. The LanthaScreen™ Elite Tb-anti-HIS Antibody from ThermoFisher Scientific was used for this purpose. This Tb-anti-HIS has an excitation/emission of 340 nm and 490 nm, respectively. The 10mer-Thr-FAM probe when bound to WDR5 will undergo a FRET interaction with the Tb-anti-HIS and emit at 520 nm. […] WDR5-His Tag (A23, residues 24-334) is expressed and purified in our lab in sufficient quantities for screening. 10mer-Thr-FAM peptide is used at 150 nM. WDR5-His tag protein is used at 2 nM. A source plate is prepared using an Echo Liquid Handler, which distributes the compounds to the assay plate (white, flat-bottom; OptiPlate) in a 10-point, 5-fold dilution schemes with a top concentration of 5 μM, in a final volume of 20 μL. A final target (WDR5)/Tb-Ab concentration of 2 nM/1 nM is dispensed from appropriate stock solutions, respectively. The final DMSO concentration in each well of the assay plate is 1% or lower. The plate is covered, shielded from light, and incubated for 60 minutes at room temperature with rocking. 10mer-Thr-FAM and Anti-His terbium antibody fluorescence is then measured on a Biotek Cytation 3 at excitation wavelength of 340 nm, and emission wavelengths of 495 nm and 520 nm. Working buffer conditions contain 1× Phosphate Buffered Saline, 300 mM NaCl, 0.5 mM TCEP, 0.1% CHAPS, at pH 7.2. TR-FRET signal is plotted and IC50 and Ki values are calculated according to the formula of Wang Z. FEBS Lett (1996) 3, 245.
where […] is the concentration of the free inhibitor at 50% inhibition, [L]50 is the concentration of the free labeled ligand at 50% inhibition, [P]0 is the concentration of the free protein at 0% inhibition, Kd represents the dissociation constant of the FITC-MLL or 10mer-Thr-FAM probe for WDR5. Total fluorescence is also measured, to rule out compounds that are inherently fluorescent or able to act as quenchers in the assay. TR-FRET binding assay

The mark [3] stands for this setting: 120 h, MV4;11 cells, read-out: GI50 for additional WDR5 inhibitor compounds on cellular proliferation of MV4;11 human cancer cell lines.
Setting [4] is: read-out: Ki for additional WDR5 inhibitor compounds for Inhibition of WDR5 by TR-FRET assay.
Where [5] appears, read: MV4-11, 120 h, MV4:11 cells, read-out: GI50 for representative compounds on cellular proliferation of MV4:11 human cancer cell lines.
[6] abbreviates: read-out: Ki for Exemplified Compounds for Inhibition of WDR5 by TR-FRET assay.
Setting [7] is: MV4-11, 120 h, MV4;11 cells, read-out: GI50 for additional WDR5 inhibitor compounds on cellular proliferation of MV4;11 human cancer cell lines.

Read-outs that look alike come from different tables or passages of the source.

Regarding `CCc1cc(C(=O)NCCN(C)C)c2nccc(N3CCc4c(cc(Cn5ccnc5)cc4-c4cn(C)nc4C(F)(F)F)C3=O)c2c1` [Compound B-166], the GI50 in assay [1] (setting [3]) is < 20 nM. Besides, the Ki (as a rule, a measure of affinity in units of concentration, obtained from inhibition or displacement) in assay [2] (setting [4]) turned out to be 0.029 nM.
On to `CCOc1cc2c(N3CCc4c(cc(Cn5ccnc5)cc4-c4cn(C)nc4C(F)(F)F)C3=O)ncnc2cc1OC` [Example 28, 7-((1H-Imidazol-1-yl)methyl)-2-(6-ethoxy-7-methoxyquinazolin-4-yl)-5-(1-methyl-3-(trifluoromethyl)-1H-pyrazol-4-yl)-3,4-dihydroisoquinolin-1(2H)-one], for which the GI50 in assay [1] (setting [5]) came to 64 nM. In assay [2] (setting [6]), the Ki was < 0.02 nM.
Regarding `CCc1cc(C(=O)NC)c2nccc(N3CCc4c(cc(Cn5ccnc5C)cc4-c4cn(C)nc4C(F)(F)F)C3=O)c2c1` [Example 5, 6-Ethyl-N-methyl-4-(7-((2-methyl-1H-imidazol-1-yl)methyl)-5-(1-methyl-3-(trifluoromethyl)-1H-pyrazol-4-yl)-1-oxo-3,4-dihydroisoquinolin-2(1H)-yl)quinoline-8-carboxamide], in assay [1] (setting [5]), the GI50 is < 20 nM. The Ki in assay [2] (setting [6]) was < 0.02 nM.
On the same counts, the results for `COc1cc2nc(C)nc(N3CCc4c(cc(Cn5ccnc5)cc4-c4cn(C)nc4C)C3=O)c2cc1OC` [Example 65, 7-((1H-Imidazol-1-yl)methyl)-2-(6,7-dimethoxy-2-methylquinazolin-4-yl)-5-(1,3-dimethyl-1H-pyrazol-4-yl)-3,4-dihydroisoquinolin-1(2H)-one] are 43 nM and 0.023 nM.
Regarding `COc1cc(C(=O)NC2CN(C(=O)C3CCOCC3)C2)c2nccc(N3CCc4c(cc(Cn5ccnc5)cc4-c4cn(C)nc4C(F)(F)F)C3=O)c2c1` [Compound B-229], the GI50 in assay [1] (setting [7]) amounted to 26 nM. Also, in assay [2] (setting [4]), the Ki is < 0.02 nM.
Consider `CCc1cc(NC(C)=O)c2nccc(N3CCc4c(cc(Cn5ccnc5)cc4-c4cn(C)nc4C(F)(F)F)C3=O)c2c1` [Compound B-231], for which the GI50 in assay [1] (setting [7]) was < 20 nM.
Turning to `CCc1cnc2c(c1)C(N1CCc3c(cc(Cn4ccnc4)cc3-c3cn(C)nc3C(F)(F)F)C1=O)COC2` (centres unmarked) [Example 21, 7-((1H-Imidazol-1-yl)methyl)-2-(3-ethyl-5,8-dihydro-6H-pyrano[3,4-b]pyridin-5-yl)-5-(1-methyl-3-(trifluoromethyl)-1H-pyrazol-4-yl)-3,4-dihydroisoquinolin-1(2H)-one], the GI50 in assay [1] (setting [5]) is < 20 nM. In addition, in assay [2] (setting [6]), the inhibitory constant (Ki) was < 0.02 nM.
For `CNC(=O)c1cc(OC)cc2c(N3CCc4c(cc(Cn5ccnc5)cc4-c4cn(C)nc4C(F)(F)F)C3=O)ccnc12` [Compound B-42], in assay [1] (setting [7]), the GI50 is < 20 nM.
As to `COc1cc2nc(C)nc(N3CCc4c(cc(Cn5ccnc5)cc4-c4cc(C(F)(F)F)nn4C)C3=O)c2cc1OC` [Example 61, 7-((1H-Imidazol-1-yl)methyl)-2-(6,7-dimethoxy-2-methylquinazolin-4-yl)-5-(1-methyl-3-(trifluoromethyl)-1H-pyrazol-5-yl)-3,4-dihydroisoquinolin-1(2H)-one], the GI50 in assay [1] (setting [5]) was determined as 128 nM. In addition, the Ki in assay [2] (setting [6]) came out at 0.031 nM.
In the case of `CCc1cc2c(N3CCc4c(cc(Cn5ccnc5)cc4-c4cn(C)nc4C(F)(F)F)C3=O)ccnc2c(=O)[nH]1` [Example 7, 4-(7-((1H-Imidazol-1-yl)methyl)-5-(1-methyl-3-(trifluoromethyl)-1H-pyrazol-4-yl)-1-oxo-3,4-dihydroisoquinolin-2(1H)-yl)-6-ethyl-1,7-naphthyridin-8(7H)-one and 7-((1H-imidazol-1-yl)methyl)-2-(6-ethyl-8-hydroxy-1,7-naphthyridin-4-yl)-5-(1-methyl-3-(trifluoromethyl)-1H-pyrazol-4-yl)-3,4-dihydroisoquinolin-1(2H)-one mixture], the GI50 in assay [1] (setting [5]) was found to be 1990 nM. In assay [2] (setting [6]), the Ki is < 0.02 nM.
On the same counts, the results for `COc1cc2c(N3CCc4c(cc(Cn5ccnc5)cc4-c4cn(C)nc4C(F)(F)F)C3=O)nc(C)nc2cc1N1CCC1` [Example 54, 7-((1H-Imidazol-1-yl)methyl)-2-(7-(azetidin-1-yl)-6-methoxy-2-methylquinazolin-4-yl)-5-(1-methyl-3-(trifluoromethyl)-1H-pyrazol-4-yl)-3,4-dihydroisoquinolin-1(2H)-one] are 81 nM and < 0.02 nM.
For `CCc1cc(N2CCN(C3COC3)C(=O)C2)c2nc(C)cc(N3CCc4c(cc(Cn5ccnc5)cc4-c4cn(C)nc4C(F)(F)F)C3=O)c2c1` [Compound B-132], the GI50 in assay [1] (setting [7]) is < 20 nM. In addition, the Ki in assay [2] (setting [4]) turned out to be 0.03 nM.
As to `CCn1nc(C)cc1-c1cc(Cn2ccnc2)cc2c1CCN(c1nc(C)nc3cc(OC)c(OC)cc13)C2=O` [Example 58, 7-((1H-Imidazol-1-yl)methyl)-2-(6,7-dimethoxy-2-methylquinazolin-4-yl)-5-(1-ethyl-3-methyl-1H-pyrazol-5-yl)-3,4-dihydroisoquinolin-1(2H)-one], the GI50 in assay [1] (setting [5]) was determined as 195 nM. Further, the Ki in assay [2] (setting [6]) was determined as 0.03 nM.
Consider `CCc1cc2c(N3CCc4c(cc(Cn5ccnc5)cc4-c4cn(C)nc4C(F)(F)F)C3=O)ccnc2c(CC)n1` [Example 37, 7-((1H-Imidazol-1-yl)methyl)-2-(6,8-diethyl-1,7-naphthyridin-4-yl)-5-(1-methyl-3-(trifluoromethyl)-1H-pyrazol-4-yl)-3,4-dihydroisoquinolin-1(2H)-one], for which the GI50 in assay [1] (setting [5]) turned out to be 96 nM. Further, the Ki in assay [2] (setting [6]) is < 0.02 nM.
On the same counts, the results for `CCc1cc(C(N)=O)c2nccc(N3CCc4c(cc(Cn5ccnc5C)cc4-c4cn(C)nc4C(F)(F)F)C3=O)c2c1` [Example 6, 6-Ethyl-4-(7-((2-methyl-11H-imidazol-1-yl)methyl)-5-(1-methyl-3-(trifluoromethyl)-1H-pyrazol-4-yl)-1-oxo-3,4-dihydroisoquinolin-2(1H)-yl)quinoline-8-carboxamide] are < 20 nM and < 0.02 nM.
With `CCOc1cc2ncnc(N3CCc4c(cc(Cn5ccnc5)cc4-c4cn(C)nc4C(F)(F)F)C3=O)c2cc1OCC` [Example 30, 7-((1H-Imidazol-1-yl)methyl)-2-(6,7-diethoxyquinazolin-4-yl)-5-(1-methyl-3-(trifluoromethyl)-1H-pyrazol-4-yl)-3,4-dihydroisoquinolin-1(2H)-one], the GI50 in assay [1] (setting [5]) was determined as 47 nM. For the same compound, the Ki in assay [2] (setting [6]) was < 0.02 nM.
On the same counts, the results for `CCc1cc(OC)c2nc(C)nc(N3CCc4c(cc(Cn5ccnc5)cc4-c4cn(C)nc4C(F)(F)F)C3=O)c2c1` [Example 51, 7-((1H-Imidazol-1-yl)methyl)-2-(6-ethyl-8-methoxy-2-methylquinazolin-4-yl)-5-(1-methyl-3-(trifluoromethyl)-1H-pyrazol-4-yl)-3,4-dihydroisoquinolin-1(2H)-one] are < 20 nM and 0.022 nM.
Regarding `CCN(C)c1nc(N2CCc3c(cc(Cn4ccnc4)cc3-c3cn(C)nc3C(F)(F)F)C2=O)c2cc(OC)c(OC)cc2n1` [Example 62, 7-((1H-Imidazol-1-yl)methyl)-2-(2-(ethyl(methyl)amino)-6,7-dimethoxyquinazolin-4-yl)-5-(1-methyl-3-(trifluoromethyl)-1H-pyrazol-4-yl)-3,4-dihydroisoquinolin-1(2H)-one], the GI50 in assay [1] (setting [5]) came out at 29 nM. The Ki in assay [2] (setting [6]) was < 0.02 nM.
Regarding `CCc1cc(N)c2nccc(N3CCc4c(cc(Cn5ccnc5)cc4-c4cn(C)nc4C(F)(F)F)C3=O)c2c1` [Compound B-230], in assay [1] (setting [3]), the GI50 came to 54 nM.
